Reference: patent publication US11370847B2, “Single domain antibodies directed against intracellular antigens” (Singh Biotechnology, LLC, priority 2014, dated 2022)
Where “and” joins values, the source holds several entries; their conditions need not be identical. Identical values can stand only once. Like-named read-outs stand apart in the source and are kept apart here.

Columns and labels:
STAT5 = assay: Biacore 3000 protein binding, STAT5
PANC-1 cells = assay: MTT proliferation assay, PANC-1; conditions: SBT-100 100 μg/ml alone, experiment with Gemcitabine Hydrochloride (Biovision #1759), 72 hours
MDA-MB-231 xenograft = conditions: for Individual Tumor Measurements: listed as anti-STAT3 bacterial VHH13
[1] = Group 2, 1 mg/kg IP BID×14, day 20 (6/23/15)
[2] = Group 2, 1 mg/kg IP BID×14, day 23 (6/26/15)
[3] = Group 2, 1 mg/kg IP BID×14, day 26 (6/29/15)
[4] = Group 2, 1 mg/kg IP BID×14, day 29 (7/2/15)
[5] = Group 2, 1 mg/kg IP BID×14, day 33 (7/6/15)
[6] = Group 2, 1 mg/kg IP BID×14, day 36 (7/9/15)
[7] = Group 2, 1 mg/kg IP BID×14, day 42 (7/15/15)
[8] = Group 3, 2 mg/kg IP BID×14, day 20 (6/23/15)
[9] = Group 3, 2 mg/kg IP BID×14, day 23 (6/26/15)
[10] = Group 3, 2 mg/kg IP BID×14, day 26 (6/29/15)
[11] = Group 3, 2 mg/kg IP BID×14, day 29 (7/2/15)
[12] = Group 3, 2 mg/kg IP BID×14, day 33 (7/6/15)

Question: How did the “binding to STAT5” value (STAT5; Biacore 3000, sdAb immobilized) turn out when “anti-STAT3 VHH13: anti-STAT3 single-domain antibody, SEQ ID NO:3; bacterially produced, referred to as SBT-100” was run?
Answer: Its value is “bound”.

Question: And the “Result (binding)” value (STAT5; Table 50, sdAb immobilized as ligand, analyte STAT5 protein 500 nM)?
Answer: Its value is “Binding”.

Question: And the Abs (PANC-1 cells)?
Answer: The Abs was 0.381.

Question: What about the “% mean tumor growth inhibition” value (MDA-MB-231 xenograft; 500 μg/kg bw IP QD×14) of the same substance?
Answer: The value was 33.64%.

Question: And the “mean tumor size (±SE) on day 14 of dosing” value (MDA-MB-231 xenograft; 500 μg/kg bw IP QD×14)?
Answer: Its value is 118.86±15.94.

Question: And the tumor doubling time (MDA-MB-231 xenograft; 500 μg/kg bw IP QD×14, control 44.27 days)?
Answer: The tumor doubling time was 61.06 days.

Question: What about the “% Inhibition Mean” value (MDA-MB-231 xenograft; [1]) of the same substance?
Answer: The value was 10.34%.

Question: And the “% Inhibition Median” value (MDA-MB-231 xenograft; [1])?
Answer: The value was 18.61%.

Question: What about the “Tumor Mean Absolute” value (MDA-MB-231 xenograft; [1]) of the same substance?
Answer: Its value is 82.92 mm^3.

Question: And the “Tumor Median Absolute” value (MDA-MB-231 xenograft; [1])?
Answer: Its value is 80.66 mm^3.

Question: And the “Individual Tumor Measurements” value (MDA-MB-231 xenograft; [1])?
Answer: Its value is 73.15 mm^3 and 80.11 mm^3 and 97.22 mm^3 and 81.21 mm^3.

Question: What about the “% Inhibition Mean” value (MDA-MB-231 xenograft; [2]) of the same substance?
Answer: Its value is 52.39%.

Question: What about the “% Inhibition Median” value (MDA-MB-231 xenograft; [2]) of the same substance?
Answer: The value was 43.28%.

Question: What about the “Tumor Mean Absolute” value (MDA-MB-231 xenograft; [2]) of the same substance?
Answer: The value was 66.17 mm^3.

Question: And the “Tumor Median Absolute” value (MDA-MB-231 xenograft; [2])?
Answer: Its value is 65.55 mm^3.

Question: And the “Individual Tumor Measurements” value (MDA-MB-231 xenograft; [2])?
Answer: Its value is 54.54 mm^3 and 76.56 mm^3 and 79.99 mm^3 and 53.58 mm^3.

Question: What about the “% Inhibition Mean” value (MDA-MB-231 xenograft; [3]) of the same substance?
Answer: The value was 60.52%.

Question: And the “% Inhibition Median” value (MDA-MB-231 xenograft; [3])?
Answer: The value was 50.54%.

Question: And the “Tumor Mean Absolute” value (MDA-MB-231 xenograft; [3])?
Answer: The value was 68.07 mm^3.

Question: And the “Tumor Median Absolute” value (MDA-MB-231 xenograft; [3])?
Answer: Its value is 68.80 mm^3.

Question: And the “Individual Tumor Measurements” value (MDA-MB-231 xenograft; [3])?
Answer: The value was 59.17 mm^3 and 80.34 mm^3 and 78.44 mm^3 and 54.34 mm^3.

Question: What about the “% Inhibition Mean” value (MDA-MB-231 xenograft; [4]) of the same substance?
Answer: Its value is 65.12%.

Question: And the “% Inhibition Median” value (MDA-MB-231 xenograft; [4])?
Answer: Its value is 61.81%.

Question: And the “Tumor Mean Absolute” value (MDA-MB-231 xenograft; [4])?
Answer: Its value is 68.32 mm^3.

Question: And the “Tumor Median Absolute” value (MDA-MB-231 xenograft; [4])?
Answer: The value was 63.66 mm^3.

Question: What about the “Individual Tumor Measurements” value (MDA-MB-231 xenograft; [4]) of the same substance?
Answer: Its value is 57.21 mm^3 and 88.75 mm^3 and 59.90 mm^3 and 67.43 mm^3.

Question: And the “% Inhibition Mean” value (MDA-MB-231 xenograft; [5])?
Answer: Its value is 69.70%.

Question: What about the “% Inhibition Median” value (MDA-MB-231 xenograft; [5]) of the same substance?
Answer: Its value is 72.26%.

Question: What about the “Tumor Mean Absolute” value (MDA-MB-231 xenograft; [5]) of the same substance?
Answer: The value was 67.12 mm^3.

Question: What about the “Tumor Median Absolute” value (MDA-MB-231 xenograft; [5]) of the same substance?
Answer: Its value is 56.75 mm^3.

Question: And the “Individual Tumor Measurements” value (MDA-MB-231 xenograft; [5])?
Answer: Its value is 56.20 mm^3 and 99.09 mm^3 and 55.90 mm^3 and 57.30 mm^3.

Question: And the “% Inhibition Mean” value (MDA-MB-231 xenograft; [6])?
Answer: The value was 78.28%.

Question: And the “% Inhibition Median” value (MDA-MB-231 xenograft; [6])?
Answer: The value was 79.75%.

Question: And the “Tumor Mean Absolute” value (MDA-MB-231 xenograft; [6])?
Answer: Its value is 51.81 mm^3.

Question: What about the “Tumor Median Absolute” value (MDA-MB-231 xenograft; [6]) of the same substance?
Answer: Its value is 45.40 mm^3.

Question: What about the “Individual Tumor Measurements” value (MDA-MB-231 xenograft; [6]) of the same substance?
Answer: The value was 37.13 mm^3 and 87.42 mm^3 and 53.66 mm^3 and 29.02 mm^3.

Question: What about the “% Inhibition Mean” value (MDA-MB-231 xenograft; [7]) of the same substance?
Answer: The value was 78.08%.

Question: And the “% Inhibition Median” value (MDA-MB-231 xenograft; [7])?
Answer: Its value is 76.74%.

Question: What about the “Tumor Mean Absolute” value (MDA-MB-231 xenograft; [7]) of the same substance?
Answer: Its value is 55.98 mm^3.

Question: What about the “Tumor Median Absolute” value (MDA-MB-231 xenograft; [7]) of the same substance?
Answer: The value was 56.29 mm^3.

Question: What about the “Individual Tumor Measurements” value (MDA-MB-231 xenograft; [7]) of the same substance?
Answer: The value was 39.17 mm^3 and 72.18 mm^3 and 60.35 mm^3 and 52.23 mm^3.

Question: And the growth delay (MDA-MB-231 xenograft; Group 2: 1 mg/kg bw IP BID×14)?
Answer: The growth delay was 13.99 days.

Question: What about the mean growth inhibition (MDA-MB-231 xenograft; Group 2: 1 mg/kg bw IP BID×14) of the same substance?
Answer: The mean growth inhibition was 78.3.

Question: And the “mean tumor size (±S.E.) at termination (day 42)” value (MDA-MB-231 xenograft; Group 2: 1 mg/kg bw IP BID×14)?
Answer: The value was 55.98±6.94.

Question: What about the “mean tumor size (±SE) at day 14 of dosing” value (MDA-MB-231 xenograft; Group 2: 1 mg/kg bw IP BID×14) of the same substance?
Answer: Its value is 67.12±10.66.

Question: And the “% treatment/control” value (MDA-MB-231 xenograft; Group 2: 1 mg/kg bw IP BID×14, (tumor stasis))?
Answer: The value was −33.75%.

Question: And the tumor doubling time (MDA-MB-231 xenograft; Group 2: 1 mg/kg bw IP BID×14, control 20.56 days)?
Answer: The tumor doubling time was 34.54 days.

Question: And the “% Inhibition Mean” value (MDA-MB-231 xenograft; [8])?
Answer: The value was 16.19%.

Question: And the “% Inhibition Median” value (MDA-MB-231 xenograft; [8])?
Answer: The value was 15.78%.

Question: And the “Tumor Mean Absolute” value (MDA-MB-231 xenograft; [8])?
Answer: Its value is 77.52 mm^3.

Question: What about the “Tumor Median Absolute” value (MDA-MB-231 xenograft; [8]) of the same substance?
Answer: Its value is 83.46 mm^3.

Question: What about the “Individual Tumor Measurements” value (MDA-MB-231 xenograft; [8]) of the same substance?
Answer: Its value is 56.41 mm^3 and 84.06 mm^3 and 82.87 mm^3 and 86.73 mm^3.

Question: What about the “% Inhibition Mean” value (MDA-MB-231 xenograft; [9]) of the same substance?
Answer: Its value is 59.06%.

Question: And the “% Inhibition Median” value (MDA-MB-231 xenograft; [9])?
Answer: Its value is 57.27%.

Question: What about the “Tumor Mean Absolute” value (MDA-MB-231 xenograft; [9]) of the same substance?
Answer: The value was 56.89 mm^3.

Question: And the “Tumor Median Absolute” value (MDA-MB-231 xenograft; [9])?
Answer: The value was 49.39 mm^3.

Question: What about the “Individual Tumor Measurements” value (MDA-MB-231 xenograft; [9]) of the same substance?
Answer: Its value is 43.61 mm^3 and 85.18 mm^3 and 54.78 mm^3 and 44.01 mm^3.

Question: What about the “% Inhibition Mean” value (MDA-MB-231 xenograft; [10]) of the same substance?
Answer: The value was 77.83%.

Question: What about the “% Inhibition Median” value (MDA-MB-231 xenograft; [10]) of the same substance?
Answer: The value was 75.54%.

Question: And the “Tumor Mean Absolute” value (MDA-MB-231 xenograft; [10])?
Answer: The value was 38.22 mm^3.

Question: And the “Tumor Median Absolute” value (MDA-MB-231 xenograft; [10])?
Answer: Its value is 34.02 mm^3.

Question: What about the “Individual Tumor Measurements” value (MDA-MB-231 xenograft; [10]) of the same substance?
Answer: Its value is 33.13 mm^3 and 61.75 mm^3 and 34.92 mm^3 and 23.09 mm^3.

Question: And the “% Inhibition Mean” value (MDA-MB-231 xenograft; [11])?
Answer: Its value is 76.54%.

Question: What about the “% Inhibition Median” value (MDA-MB-231 xenograft; [11]) of the same substance?
Answer: Its value is 74.17%.

Question: What about the “Tumor Mean Absolute” value (MDA-MB-231 xenograft; [11]) of the same substance?
Answer: The value was 45.95 mm^3.

Question: What about the “Tumor Median Absolute” value (MDA-MB-231 xenograft; [11]) of the same substance?
Answer: Its value is 43.07 mm^3.

Question: What about the “Individual Tumor Measurements” value (MDA-MB-231 xenograft; [11]) of the same substance?
Answer: The value was 31.76 mm^3 and 80.69 mm^3 and 54.38 mm^3 and 16.99 mm^3.

Question: And the “% Inhibition Mean” value (MDA-MB-231 xenograft; [12])?
Answer: Its value is 73.69%.

Question: And the “% Inhibition Median” value (MDA-MB-231 xenograft; [12])?
Answer: The value was 72.49%.

Question: What about the “Tumor Mean Absolute” value (MDA-MB-231 xenograft; [12]) of the same substance?
Answer: Its value is 58.27 mm^3.

Question: What about the “Tumor Median Absolute” value (MDA-MB-231 xenograft; [12]) of the same substance?
Answer: The value was 56.29 mm^3.

Question: What about the “Individual Tumor Measurements” value (MDA-MB-231 xenograft; [12]) of the same substance?
Answer: Its value is 34.11 mm^3 and 110.72 mm^3 and 78.47 mm^3 and 9.78 mm^3.

Question: What about the “% Inhibition Mean” value (MDA-MB-231 xenograft; Group 3, 2 mg/kg IP BID×14, day 36 (7/9/15)) of the same substance?
Answer: Its value is 75.18%.
